Measured values as given in ChEMBL document CHEMBL5505951, “Insight into the design of FGFR4 selective inhibitors in cancer therapy: Prospects and challenges” (Eur J Med Chem, 2024).

Experiments:
Hep 3B2 [1] = assay: Antitumor activity against human Hep3B cells xenografted in BALB/c nude mouse assessed as tumor growth inhibition at 100 mg/kg, po relative to control; type: functional; conditions: read-out: TGI
[2] = biological target: T1, Fibroblast growth factor receptor 2 (Homo sapiens, UniProt P21802); assay: Inhibition of N-terminal 6xHis-tagged human FGFR2 (453 to 770 residues) transfected in Escherichia coli Rossetta cells incubated for 30 mins by ADP-Glo assay
T1 sequence (P21802 whole entry, the tested form may be a part): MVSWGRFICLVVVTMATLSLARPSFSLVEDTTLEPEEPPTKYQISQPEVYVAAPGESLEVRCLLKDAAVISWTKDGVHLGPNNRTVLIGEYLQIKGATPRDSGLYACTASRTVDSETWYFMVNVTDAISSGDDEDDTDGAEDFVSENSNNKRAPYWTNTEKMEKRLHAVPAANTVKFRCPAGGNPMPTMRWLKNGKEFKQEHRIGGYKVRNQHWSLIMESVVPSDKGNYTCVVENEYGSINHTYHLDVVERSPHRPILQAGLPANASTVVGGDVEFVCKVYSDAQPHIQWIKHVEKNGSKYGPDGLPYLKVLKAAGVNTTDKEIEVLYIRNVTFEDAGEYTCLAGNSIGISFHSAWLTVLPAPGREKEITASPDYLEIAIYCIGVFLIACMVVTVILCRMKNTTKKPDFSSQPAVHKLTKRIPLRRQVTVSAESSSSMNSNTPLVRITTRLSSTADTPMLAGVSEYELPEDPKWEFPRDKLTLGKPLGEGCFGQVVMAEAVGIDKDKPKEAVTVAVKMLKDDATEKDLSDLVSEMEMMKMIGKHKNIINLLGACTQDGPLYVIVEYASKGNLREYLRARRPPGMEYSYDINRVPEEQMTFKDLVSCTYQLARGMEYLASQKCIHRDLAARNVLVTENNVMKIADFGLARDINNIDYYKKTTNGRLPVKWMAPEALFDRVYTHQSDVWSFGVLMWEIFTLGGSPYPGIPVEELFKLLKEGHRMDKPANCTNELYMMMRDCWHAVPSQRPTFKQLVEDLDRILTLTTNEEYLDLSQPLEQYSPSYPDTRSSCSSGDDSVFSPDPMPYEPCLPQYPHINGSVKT

[3] = biological target: T2, Fibroblast growth factor receptor 3 (Homo sapiens, UniProt P22607); assay: Inhibition of N-terminal 6xHis-tagged human FGFR3 (450 to 758 residues) transfected in Escherichia coli Rossetta cells incubated for 30 mins by ADP-Glo assay
T2 sequence (P22607 whole entry, the tested form may be a part): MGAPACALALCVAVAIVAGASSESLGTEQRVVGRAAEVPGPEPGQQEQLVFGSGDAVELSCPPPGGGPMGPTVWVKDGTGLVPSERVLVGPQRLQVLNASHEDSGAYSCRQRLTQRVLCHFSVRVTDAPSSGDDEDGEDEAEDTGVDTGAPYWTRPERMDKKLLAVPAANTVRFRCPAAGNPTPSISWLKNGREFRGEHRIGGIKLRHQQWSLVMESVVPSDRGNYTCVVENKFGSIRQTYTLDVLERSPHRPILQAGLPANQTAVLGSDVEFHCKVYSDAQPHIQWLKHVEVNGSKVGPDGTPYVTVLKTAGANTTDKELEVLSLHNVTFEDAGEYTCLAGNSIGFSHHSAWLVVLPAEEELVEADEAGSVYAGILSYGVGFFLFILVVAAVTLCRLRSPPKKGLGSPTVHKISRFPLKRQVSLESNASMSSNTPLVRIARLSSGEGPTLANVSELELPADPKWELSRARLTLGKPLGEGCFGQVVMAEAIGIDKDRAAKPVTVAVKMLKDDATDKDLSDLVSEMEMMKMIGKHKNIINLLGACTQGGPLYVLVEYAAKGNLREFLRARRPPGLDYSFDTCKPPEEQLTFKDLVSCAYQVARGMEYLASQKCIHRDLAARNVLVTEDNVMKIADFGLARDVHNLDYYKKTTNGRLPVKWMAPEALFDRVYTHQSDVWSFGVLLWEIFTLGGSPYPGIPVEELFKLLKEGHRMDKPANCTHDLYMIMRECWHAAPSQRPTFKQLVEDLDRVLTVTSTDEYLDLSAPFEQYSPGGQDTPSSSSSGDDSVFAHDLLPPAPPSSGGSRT

[4] = biological target: T3, Fibroblast growth factor receptor 1 (Homo sapiens, UniProt P11362); assay: Inhibition of N-terminal 6xHis-tagged human FGFR1 (456 to 765 residues) transfected in Escherichia coli Rossetta cells incubated for 30 mins by ADP-Glo assay
T3 sequence (P11362 whole entry, the tested form may be a part): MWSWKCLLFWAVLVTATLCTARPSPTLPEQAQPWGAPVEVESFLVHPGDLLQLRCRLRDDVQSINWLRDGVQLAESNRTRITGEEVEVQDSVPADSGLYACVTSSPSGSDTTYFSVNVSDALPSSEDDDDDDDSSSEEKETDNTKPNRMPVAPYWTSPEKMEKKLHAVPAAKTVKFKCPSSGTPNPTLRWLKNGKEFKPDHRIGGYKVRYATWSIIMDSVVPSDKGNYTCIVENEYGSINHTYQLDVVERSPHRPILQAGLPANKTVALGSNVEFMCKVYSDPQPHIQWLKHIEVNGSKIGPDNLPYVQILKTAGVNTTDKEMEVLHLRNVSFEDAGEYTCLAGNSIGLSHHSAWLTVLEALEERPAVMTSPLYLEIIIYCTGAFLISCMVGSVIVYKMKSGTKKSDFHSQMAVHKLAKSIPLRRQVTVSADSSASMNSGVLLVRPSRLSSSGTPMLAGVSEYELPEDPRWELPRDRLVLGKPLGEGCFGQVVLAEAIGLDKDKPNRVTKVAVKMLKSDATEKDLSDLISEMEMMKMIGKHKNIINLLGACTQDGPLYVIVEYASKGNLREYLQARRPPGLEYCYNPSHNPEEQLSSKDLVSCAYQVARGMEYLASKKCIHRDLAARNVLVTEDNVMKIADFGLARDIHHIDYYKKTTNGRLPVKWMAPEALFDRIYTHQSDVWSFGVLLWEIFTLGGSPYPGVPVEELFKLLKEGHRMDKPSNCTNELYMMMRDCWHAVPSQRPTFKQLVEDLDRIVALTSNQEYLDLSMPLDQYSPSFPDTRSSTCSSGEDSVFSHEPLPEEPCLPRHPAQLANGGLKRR

[5] = biological target: Fibroblast growth factor receptor 4 (Homo sapiens, UniProt P22455, C477A/C552A); assay: Inhibition of FGFR4 C552A/C477A double mutant (unknown origin)
Chain of Fibroblast growth factor receptor 4 (P22455 22-802 C477A/C552A limits assumed): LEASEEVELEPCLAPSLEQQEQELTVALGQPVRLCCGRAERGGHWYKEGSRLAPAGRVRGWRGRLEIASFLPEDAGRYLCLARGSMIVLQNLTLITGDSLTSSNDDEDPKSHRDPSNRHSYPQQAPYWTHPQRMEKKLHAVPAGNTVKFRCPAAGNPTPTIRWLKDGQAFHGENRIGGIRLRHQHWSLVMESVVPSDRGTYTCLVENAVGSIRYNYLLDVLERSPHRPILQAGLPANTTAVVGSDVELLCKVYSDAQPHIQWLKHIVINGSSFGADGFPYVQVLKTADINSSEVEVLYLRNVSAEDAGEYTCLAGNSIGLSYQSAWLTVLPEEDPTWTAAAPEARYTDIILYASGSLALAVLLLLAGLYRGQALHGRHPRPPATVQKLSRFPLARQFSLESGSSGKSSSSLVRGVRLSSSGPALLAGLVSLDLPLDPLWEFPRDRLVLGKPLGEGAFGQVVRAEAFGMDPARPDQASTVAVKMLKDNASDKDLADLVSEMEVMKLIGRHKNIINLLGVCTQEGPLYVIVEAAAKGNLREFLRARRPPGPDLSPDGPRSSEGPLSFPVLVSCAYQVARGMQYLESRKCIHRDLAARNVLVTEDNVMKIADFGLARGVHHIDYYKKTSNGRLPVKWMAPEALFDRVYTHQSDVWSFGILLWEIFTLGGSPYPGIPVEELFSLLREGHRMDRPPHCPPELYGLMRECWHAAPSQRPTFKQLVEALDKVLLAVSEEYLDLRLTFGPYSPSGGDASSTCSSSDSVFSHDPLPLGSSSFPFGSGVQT

Hep 3B2 [6] = assay: Antiproliferative activity against human Hep3B cells expressing FGFR3 assessed as reduction in cell viability incubated for 48 hrs by MTT assay; type: functional, cell-based
[7] = biological target: T2, Fibroblast growth factor receptor 3; assay: Inhibition of FGFR3 (unknown origin) incubated for 30 mins by ADP-Glo assay
Huh-7 [8] = assay: Antiproliferative activity against human Huh-7 cells expressing FGFR2 assessed as reduction in cell viability incubated for 48 hrs by MTT assay; type: functional, cell-based; conditions: Huh-7, 48 h
Huh-7 [9] = assay: Antiproliferative activity against human Huh-7 cells expressing FGFR3 assessed as reduction in cell viability incubated for 48 hrs by MTT assay; type: functional, cell-based; conditions: Huh-7, 48 h
Hep 3B2 [10] = assay: Antiproliferative activity against human Hep3B cells expressing FGFR2 assessed as reduction in cell viability incubated for 48 hrs by MTT assay; type: functional, cell-based
[11] = biological target: T3, Fibroblast growth factor receptor 1; assay: Inhibition of FGFR1 (unknown origin) incubated for 30 mins by ADP-Glo assay
Hep 3B2 [12] = assay: Antiproliferative activity against FGF19/FGFR4 dependent human Hep3B cells assessed as reduction in cell viability; type: functional, cell-based
Huh-7 [13] = assay: Antiproliferative activity against FGF19/FGFR4 dependent human Huh-7 cells assessed as reduction in cell viability; type: functional, cell-based
[14] = biological target: T1, Fibroblast growth factor receptor 2; assay: Inhibition of FGFR2 (unknown origin)
[15] = biological target: T2, Fibroblast growth factor receptor 3; assay: Inhibition of FGFR3 (unknown origin)
[16] = Half life in human; type: ADME
[17] = biological target: T3, Fibroblast growth factor receptor 1; assay: Inhibition of FGFR1 (unknown origin)

In the case of `C=CC(=O)Nc1cc(N2CCN(CC)CC2)ccc1Nc1cc(N(C)C(=O)Nc2c(Cl)c(OC)cc(OC)c2Cl)ncn1` [H3B-6527], the inhibition in vivo at 100 mg/kg (Hep 3B2 [1]) is reported as 109%.
`C=CC(=O)Nc1ccccc1Nc1ncc2c(n1)N(CCCN1CCN(C(=O)C=C)CC1)C(=O)N(c1c(Cl)c(OC)cc(OC)c1Cl)C2` gave an IC50 [2] of 2410 nM, an IC50 [3] of 977 nM and an IC50 [4] of 2580 nM. For the same compound, the IC50 [5] was 1530 nM.
Compound `C=CC(=O)Nc1cc(F)cc(Cl)c1Nc1nc(C)c(OCc2c(F)c(OC)cc(OC)c2F)c(C)n1` has an IC50 (Hep 3B2 [6]) of 4500 nM, an IC50 [7] greater than 30000 nM and an IC50 (Huh-7 [8]) of 7100 nM. The IC50 (Huh-7 [9]) was 12600 nM, the IC50 (Hep 3B2 [10]) was 900 nM and the IC50 [11] was greater than 50000 nM.
`COc1cc(OC)c(Cl)c(-c2ccc3nc(NCCCNC(=O)/C(C#N)=C/C4CC4)ncc3c2)c1Cl` gave an IC50 (Hep 3B2 [12]) of 9000 nM and an IC50 (Huh-7 [13]) of 9200 nM.
Work on `C=CC(=O)N[C@H]1CCOC[C@H]1Nc1ncc2cc(-c3c(Cl)c(OC)cc(OC)c3Cl)ccc2n1` [FISOGATINIB] yielded an IC50 [14] of 493 nM, an IC50 [15] of 150 nM and a half-life [16] of roughly 17 h. For the same compound, the IC50 [17] was 591 nM.
